Drawing on US6828327B2, “Macroheterocylic compounds useful as kinase inhibitors” (Ortho-McNeil Pharmaceutical, Inc., priority 2000, dated 2004), this text covers IC50 for four molecules.

Where only a bound is given, the exact number is not on record here.

The target in one assay is T1, PKC-βI (Homo sapiens, UniProt P05771).
T1 construct: purchased PanVera, Madison Wis; host or cells: baculovirus expression vector
The assay is described as follows: Protein Kinase C Scintillation Proximity Assay (SPA), PKC-βI. Type of assay: biochemical. As to conditions: inhibition value, recombinant human isozyme, 1 μM ATP. Here is the method: (§1) The binding activity of a compound for Protein Kinase C (PKC) was assessed using a homogeneous Scintillation Proximity Assay according to the procedure below.
(§2) The different human PKC isozymes (were obtained from PanVera, Madison Wis. and had been prepared as recombinant enzymes produced from a baculovirus expression vector) were added to a reaction mixture containing a test compound, 20 mM HEPES (pH 7.4), 100 μM CaCl2, 10 mM MgCl2, 100 μg/mL phosphatidylserine, 20 μg/mL diacylglycerol, 1 μM ATP, 0.8 μCi (^33P)ATP, and 5 μg/mL biotinylated substrate peptide (Jing Zhao et al., J. Bio. Chem., 1998, 273, 23072). The reaction was incubated for 15 min at 30° C. Reactions were terminated by the addition of streptavidin-coated SPA beads (Amersham) in a solution containing 1 mM EGTA, 10 mM EDTA and 100 μM ATP. Beads were allowed to settle overnight and the plates read in a Wallac MICROBETA scintillation counter (PerkinElmer Life sciences, Wellesley, Mass.).
(§3) Values for inhibition of various PKC isozymes and GSK 3-β by certain compounds of the invention tested in the PKC SPA and GSK 3-β assays are shown in Table 1.

In another assay the target is T2, PKC-γ (Homo sapiens, UniProt P05129).
T2 construct: purchased PanVera, Madison Wis; host or cells: baculovirus expression vector
Description: Protein Kinase C Scintillation Proximity Assay (SPA), PKC-γ. The conditions noted are these: inhibition value, recombinant human isozyme, 1 μM ATP. Type of assay: biochemical. As to the method:
as §1, §2, §3
Background: Scintillation proximity formats need no separation of bound from free tracer.

For another assay, the target named is T3, GSK 3-β (Oryctolagus cuniculus, UniProt G1T8E2).
T3 construct: purchased New England Biolabs, Beverly Mass
T3 sequence (G1T8E2 1-432): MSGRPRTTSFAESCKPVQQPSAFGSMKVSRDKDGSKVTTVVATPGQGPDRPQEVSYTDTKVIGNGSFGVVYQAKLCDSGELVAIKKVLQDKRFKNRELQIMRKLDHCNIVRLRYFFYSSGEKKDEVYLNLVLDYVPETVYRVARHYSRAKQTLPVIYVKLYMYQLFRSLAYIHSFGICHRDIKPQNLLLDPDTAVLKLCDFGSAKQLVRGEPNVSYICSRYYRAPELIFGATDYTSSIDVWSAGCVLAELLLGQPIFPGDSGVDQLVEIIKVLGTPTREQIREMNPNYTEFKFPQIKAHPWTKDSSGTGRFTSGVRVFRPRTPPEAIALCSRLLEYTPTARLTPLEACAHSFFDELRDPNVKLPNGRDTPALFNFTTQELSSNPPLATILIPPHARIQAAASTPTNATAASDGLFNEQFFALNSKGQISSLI
The assay is described as follows: Glycogen Synthase Kinase 3-β Assay. Type of assay: biochemical, rabbit. The conditions noted are these: inhibition value, recombinant rabbit GSK 3-β, PPI-2 substrate. Here is the method:
The inhibitory activity of a compound against Glycogen Synthase Kinase 3-β (GSK 3-β) activity was assessed using a recombinant rabbit GSK 3-β according to the procedure below.
The mixture was reacted for 90 minutes at 30° C. to allow phosphorylation of the PPI-2 protein and then the protein in the reaction was precipitated using 10% trichloroacetic acid (TCA). The precipitated protein was collected on filter plates (MultiScreen-DV, Millipore, Bedford Mass.), which were subsequently washed. Finally, the radioactivity was quantified using a TopCount Scintillation Counter (Packard, Meridian Conn.). […] Staurosporine or Valproate (both available from several commercial sources), known inhibitors of GSK-3-β, were used as a positive control for screening.

Another assay has as its target T4, VEGF-R (Rattus norvegicus, UniProt O08775).
T4 construct: polyhistidine (N)
Description: Biotinylated Peptide Substrate Assay, VEGF-R. As to conditions: read-out: VEGF-R Kinase Assay (IC50 uM). Type of assay: biochemical. Here is the method:
(§4) Assays to test inhibition of a compound for other kinases were preformed using methods that measure the amount of phosphorylation of a biotinylated peptide substrate. Biotinylated peptide substrates were selected from the literature as appropriate for the enzyme being evaluated.
(§5) A kinase reaction mix was prepared in 50 mM Tris-HCl pH=8, 10 mM MgCl2, 0.1 mM Na3VO4, 1 mM DTT, 10 μM ATP, 0.25-1 μM biotinylated peptide substrate, 0.2-0.8 μCuries per well ^33P-γ-ATP (2000-3000 Ci/mmol). Assay conditions vary slightly for each protein kinase, for example, insulin receptor kinase requires 10 mM MnCl2 for activity and Calmodulin-dependent protein kinase requires calmodulin and 10 mM CaCl2. The reaction mixture was dispensed into the wells of a streptavidin coated Flashplate and 1 μL drug stock in 100% DMSO was added to a 100 μL reaction volume resulting in a final concentration of 1% DMSO in the reaction. Enzyme was diluted in 50 mM Tris-HCl pH=8.0, 0.1% BSA and added to each well. The reaction was incubated for one hour at 30° C. in the presence of compound. After one hour the reaction mix was aspirated from the plate and the plate was washed with PBS containing 100 mM EDTA. The plate was read on a scintillation counter to determine ^33P-γ-ATP incorporated into the immobilized peptide. Test compounds were assayed in duplicate at 8 concentrations (100 uM, 10 uM, 1 uM, 100 nM, 10 nM, 1 nM, 100 pM, 10 pM). A maximum and minimum signal for the assay was determined on each plate.
(§6) The IC50 was calculated from the dose response curve of the percent inhibition of the maximum signal in the assay according to the formula:
(§7) % Inhibition=((MS−BS)/(TCS−BS))×100%
(§8) where MS=Maximum Signal, BS=Background Signal, TCS=Test Compound Signal. The percent inhibition was graphed against the log concentration of the test compound. Known inhibitor compounds as appropriate references for the kinase being assayed were also included on each plate.
(§9) VEGF-R (vascular endothelial growth factor receptor-2) is a fusion protein containing a polyhistidine tag at the N-terminus followed by amino acids 786-1343 of the rat VEGF-R2 kinase domain (GenBank Accession #U93306). Protein Kinase A is the catalytic subunit of cAMP dependent protein kinase-A purified from bovine heart (Upstate Biotech, Lake Placid, N.Y., Cat#14-114). CDK1 (cyclin dependent kinase 1) is isolated from insect cells expressing both the human CDK1 catalytic subunit and its positive regulatory subunit cyclin B (New England Biolabs, Beverly, Mass., Cat. #6020). Casein Kinase-1 is a protein truncation at amino acid 318 of the C-terminal portion of the rat CK1 delta isoform produced in E.coli (New England Biolabs, Beverly, Mass., Cat. #6030). […]

Another assay deals with T5, Calmodulin Kinase 2 (Rattus norvegicus, UniProt P11275).
T5 construct: purchased New England Biolabs, Beverly, Mass; 6060; host or cells: insect cells
Description: Biotinylated Peptide Substrate Assay, Calmodulin Kinase 2. Type of assay: biochemical. Here is the method: as §4, §5, §6, §7, §8, §9

The next assay concerns the target T6, Map kinase ERK-2 (Rattus norvegicus, UniProt P63086).
T6 construct: polyhistidine (N); purchased BIOMOL, Plymouth Meeting, Pa; SE-137; host or cells: E. coli
The assay is described as follows: Biotinylated Peptide Substrate Assay, Map kinase ERK-2. Type of assay: biochemical. As to the method:
as §4, §5, §6, §7, §8, §9

T4 sequence (O08775 786-1343): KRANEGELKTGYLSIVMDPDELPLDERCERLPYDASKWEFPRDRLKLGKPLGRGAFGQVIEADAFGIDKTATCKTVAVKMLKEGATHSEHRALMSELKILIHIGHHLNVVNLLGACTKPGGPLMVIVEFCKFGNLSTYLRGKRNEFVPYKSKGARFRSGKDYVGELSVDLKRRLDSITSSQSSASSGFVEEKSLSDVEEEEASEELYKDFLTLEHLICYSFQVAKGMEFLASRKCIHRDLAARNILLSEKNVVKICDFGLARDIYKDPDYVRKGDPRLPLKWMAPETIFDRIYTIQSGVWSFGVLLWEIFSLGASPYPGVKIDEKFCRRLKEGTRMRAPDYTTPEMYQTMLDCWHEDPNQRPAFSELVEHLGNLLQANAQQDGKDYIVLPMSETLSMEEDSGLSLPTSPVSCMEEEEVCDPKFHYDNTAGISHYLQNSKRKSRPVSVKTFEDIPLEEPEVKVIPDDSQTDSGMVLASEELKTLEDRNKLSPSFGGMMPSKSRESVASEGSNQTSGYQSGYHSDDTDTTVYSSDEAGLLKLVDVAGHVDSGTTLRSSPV
T6 sequence (P63086 whole entry): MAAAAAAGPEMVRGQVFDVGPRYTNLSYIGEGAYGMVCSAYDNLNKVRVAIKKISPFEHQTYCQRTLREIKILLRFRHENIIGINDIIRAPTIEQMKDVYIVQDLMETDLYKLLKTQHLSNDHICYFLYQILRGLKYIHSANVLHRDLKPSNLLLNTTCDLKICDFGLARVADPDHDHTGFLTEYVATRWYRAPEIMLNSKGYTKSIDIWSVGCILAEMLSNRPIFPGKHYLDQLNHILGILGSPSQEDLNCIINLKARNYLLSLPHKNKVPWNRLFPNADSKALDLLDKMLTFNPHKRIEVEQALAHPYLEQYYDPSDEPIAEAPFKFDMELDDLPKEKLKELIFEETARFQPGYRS
T1 sequence (P05771 whole entry): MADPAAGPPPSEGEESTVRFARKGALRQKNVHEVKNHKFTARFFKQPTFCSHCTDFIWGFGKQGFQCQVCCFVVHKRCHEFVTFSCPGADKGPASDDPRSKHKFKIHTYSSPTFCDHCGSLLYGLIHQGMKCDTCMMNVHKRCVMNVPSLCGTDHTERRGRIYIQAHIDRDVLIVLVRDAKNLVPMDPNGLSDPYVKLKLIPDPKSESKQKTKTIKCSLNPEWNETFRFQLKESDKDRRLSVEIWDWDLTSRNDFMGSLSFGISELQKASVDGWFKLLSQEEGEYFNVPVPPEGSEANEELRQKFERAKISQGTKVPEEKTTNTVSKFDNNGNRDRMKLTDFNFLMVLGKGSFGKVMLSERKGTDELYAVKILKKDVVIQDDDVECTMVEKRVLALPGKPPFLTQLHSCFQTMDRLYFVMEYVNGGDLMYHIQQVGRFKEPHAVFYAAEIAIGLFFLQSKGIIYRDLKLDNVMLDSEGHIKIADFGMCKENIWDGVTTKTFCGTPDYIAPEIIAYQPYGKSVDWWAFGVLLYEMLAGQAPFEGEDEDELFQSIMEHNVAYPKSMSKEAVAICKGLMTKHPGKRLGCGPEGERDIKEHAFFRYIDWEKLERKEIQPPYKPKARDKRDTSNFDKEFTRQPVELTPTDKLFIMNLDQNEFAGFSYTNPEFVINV

What is called IC50 is the midpoint of a concentration-inhibition curve. `O=C1NC(=O)C2=C1c1cn(c3ncccc13)CCOCCOCCOCCn1cc2c2cccnc21` [Cpd 1]: the IC50 at PKC-βI is 18.5 µM; at PKC-γ, 38.7 µM; on GSK 3-β, 0.027 µM; on VEGF-R, above 10 µM; against Calmodulin Kinase 2, above 10 µM; on Map kinase ERK-2 it was above 10 µM.

Take `O=C1NC(=O)C2=C1c1cn(c3ncccc13)CCOCCOCCOCCOCCn1cc2c2cccnc21` [Cpd 2]: the IC50 was above 100 µM on PKC-βI; above 100 µM on PKC-γ; 0.032 µM at GSK 3-β; above 10 µM at VEGF-R; above 10 µM against Calmodulin Kinase 2; above 10 µM against Map kinase ERK-2.

With `O=C1NC(=O)C2=C1c1cn(c3ccccc13)CCOCCOCCn1cc2c2cccnc21` [Cpd 10], the IC50 on PKC-βI is 5.15 µM; at PKC-γ, 7.8 µM; at GSK 3-β, 0.128 µM; on VEGF-R, 1.2 µM; on Calmodulin Kinase 2, above 10 µM; at Map kinase ERK-2 it was above 10 µM.

Regarding `O=C1NC(=O)C2=C1c1cn(c3ccccc13)CCOCCOCCOCCn1cc2c2cccnc21` [Cpd 11], the IC50 at PKC-βI is 1.06 µM; at PKC-γ it was 2.85 µM; on GSK 3-β, 0.015 µM; at VEGF-R, 0.889 µM; at Calmodulin Kinase 2, above 10 µM; against Map kinase ERK-2, above 10 µM.
